Experimental data: PubChem BioAssay (NCI)
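Compound exposure: 48 hours, 5 concentrations, 96-well plates. GI50 = concentration required for 50% inhibition of growth. TGI: concentration producing complete growth inhibition.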

What was measured:
Experiment in all cases: DTP human tumour cell line panel, 48 h
KM20L2 colon = system: KM20L2 colon
SNB-78 CNS = system: SNB-78 CNS
DMS 273 small cell lung = system: DMS 273 small cell lung
HT29 colon = system: HT29 colon
SF-539 CNS = system: SF-539 CNS
DMS 114 small cell lung = system: DMS 114 small cell lung
HOP-18 NSCLC = system: HOP-18 NSCLC
A498 renal = system: A498 renal
SW-620 colon = system: SW-620 colon
M14 melanoma = system: M14 melanoma
TK-10 renal = system: TK-10 renal
SR leukemia = system: SR leukemia
MDA-N = system: MDA-N
PC-3 prostate = system: PC-3 prostate
BT-549 breast = system: BT-549 breast

With `Nc1ncc2c(n1)-c1ccccc1OC2` the TGI (KM20L2 colon) was greater than 100 µM, the TGI (SNB-78 CNS) was greater than 100 µM and the TGI (DMS 273 small cell lung) was greater than 100 µM. For the same compound, the TGI (HT29 colon) was greater than 100 µM, the TGI (SF-539 CNS) was greater than 100 µM and the TGI (DMS 114 small cell lung) was greater than 100 µM. For the same compound, the TGI (HOP-18 NSCLC) was greater than 100 µM, the TGI (A498 renal) was greater than 100 µM and the TGI (SW-620 colon) was greater than 100 µM.

For `Cc1ccc(S(=O)(=O)N/N=C\c2c3ccccc3[n+](C)c3ccccc23)cc1`, the TGI (KM20L2 colon) was greater than 100 µM, the TGI (SNB-78 CNS) was greater than 100 µM and the TGI (M14 melanoma) was 97.9 µM. It also gave a TGI (DMS 273 small cell lung) of 64.7 µM, a TGI (HT29 colon) of 62.6 µM and a TGI (SF-539 CNS) of 54 µM. The TGI (DMS 114 small cell lung) was greater than 100 µM, the TGI (TK-10 renal) was greater than 100 µM and the TGI (A498 renal) was greater than 100 µM. It also gave a TGI (SW-620 colon) greater than 100 µM.

Compound `O=S(=O)(O)c1cc(N=[N+]([O-])c2ccc(N=Nc3ccccc3)cc2S(=O)(=O)O)ccc1/C=C/c1ccc(N=[N+]([O-])c2ccc(N=Nc3ccccc3)cc2S(=O)(=O)O)cc1S(=O)(=O)O` has a TGI (SNB-78 CNS) greater than 100 µM, a TGI (DMS 273 small cell lung) greater than 100 µM and a TGI (HT29 colon) greater than 100 µM. It also gave a TGI (SF-539 CNS) greater than 31.6 µM, a TGI (DMS 114 small cell lung) greater than 100 µM and a TGI (HOP-18 NSCLC) greater than 100 µM. The TGI (A498 renal) was greater than 100 µM and the TGI (SW-620 colon) was greater than 100 µM.

In the case of `OC(CCl)CN1CC[N+]2(CC1)CC[N+]1(CCN(CC(O)CCl)CC1)CC2` (stereo not drawn), the TGI (KM20L2 colon) is reported as greater than 50 µM, the TGI (M14 melanoma) is reported as greater than 50 µM and the TGI (DMS 273 small cell lung) is reported as greater than 50 µM. It also gave a TGI (HT29 colon) greater than 50 µM, a TGI (SF-539 CNS) greater than 50 µM and a TGI (DMS 114 small cell lung) greater than 50 µM. The TGI (SR leukemia) was greater than 50 µM, the TGI (TK-10 renal) was greater than 50 µM and the TGI (HOP-18 NSCLC) was greater than 50 µM. It also gave a TGI (A498 renal) greater than 50 µM and a TGI (SW-620 colon) greater than 50 µM.

Work on `CSc1c(C)n([O-])c2cc(Cl)c(Cl)cc2[n+]1=O` yielded a TGI (MDA-N) of 33.9 µM, a TGI (M14 melanoma) of 45.6 µM and a TGI (PC-3 prostate) of 38.9 µM. The TGI (HT29 colon) was 33.7 µM, the TGI (SF-539 CNS) was greater than 100 µM and the TGI (SR leukemia) was 5.69 µM. The TGI (TK-10 renal) was 35.6 µM, the TGI (A498 renal) was 61.6 µM and the TGI (SW-620 colon) was 42.9 µM. It also gave a TGI (BT-549 breast) of 32.7 µM.

In the case of `O=[N+]([O-])c1ccc(Nc2cccc3c2[nH]c2c(-c4ccccc4)nccc23)c([N+](=O)[O-])c1`, the TGI (KM20L2 colon) is reported as greater than 100 µM, the TGI (SNB-78 CNS) is reported as greater than 100 µM and the TGI (DMS 273 small cell lung) is reported as greater than 100 µM. The TGI (HT29 colon) was greater than 100 µM, the TGI (SF-539 CNS) was greater than 100 µM and the TGI (DMS 114 small cell lung) was greater than 100 µM. The TGI (HOP-18 NSCLC) was greater than 100 µM, the TGI (A498 renal) was greater than 100 µM and the TGI (SW-620 colon) was greater than 100 µM.

Compound `O=C1Nc2ccccc2SC1=C(C(=O)c1ccccc1)C(=O)c1ccccc1` has a TGI (MDA-N) of 48.8 µM, a TGI (M14 melanoma) greater than 100 µM and a TGI (PC-3 prostate) greater than 100 µM. For the same compound, the TGI (HT29 colon) was greater than 100 µM, the TGI (SF-539 CNS) was greater than 100 µM and the TGI (SR leukemia) was greater than 100 µM. The TGI (TK-10 renal) was greater than 100 µM, the TGI (A498 renal) was greater than 80.3 µM and the TGI (SW-620 colon) was greater than 100 µM. For the same compound, the TGI (BT-549 breast) was greater than 90.2 µM.

Compound `COc1ccc(C2=NN(c3nsc4ccccc34)C(=O)CC2)cc1` has a TGI (KM20L2 colon) greater than 100 µM, a TGI (SNB-78 CNS) greater than 100 µM and a TGI (M14 melanoma) greater than 100 µM. The TGI (DMS 273 small cell lung) was greater than 100 µM, the TGI (HT29 colon) was greater than 100 µM and the TGI (SF-539 CNS) was greater than 100 µM. It also gave a TGI (DMS 114 small cell lung) greater than 100 µM, a TGI (SR leukemia) greater than 100 µM and a TGI (TK-10 renal) greater than 100 µM. The TGI (HOP-18 NSCLC) was greater than 100 µM and the TGI (SW-620 colon) was greater than 100 µM.

`CC(C)(C)CC(C)(C)NCC(O)COc1ccc(C(C)(C)c2ccc(OCC(O)CNC(C)(C)CC(C)(C)C)cc2)cc1` (stereo not drawn) gave a TGI (KM20L2 colon) of 2.88 µM, a TGI (SNB-78 CNS) of 3.63 µM and a TGI (M14 melanoma) of 1.49 µM. The TGI (DMS 273 small cell lung) was 2.28 µM, the GI50 (PC-3 prostate) was 1.88 µM and the TGI (PC-3 prostate) was 3.38 µM. The TGI (HT29 colon) was 1.42 µM, the TGI (SF-539 CNS) was 3.33 µM and the TGI (DMS 114 small cell lung) was 3.21 µM. The GI50 (TK-10 renal) was 1.75 µM, the TGI (TK-10 renal) was 3.32 µM and the TGI (A498 renal) was 3.03 µM. The TGI (SW-620 colon) was 0.463 µM.

For `COc1ccc(/N=N/C(=NNC(=O)c2ccc(C)cc2)c2ccc(N(C)C)cc2)cc1`, the TGI (MDA-N) was greater than 73.4 µM, the TGI (M14 melanoma) was greater than 100 µM and the TGI (PC-3 prostate) was greater than 100 µM. It also gave a TGI (HT29 colon) greater than 89.8 µM, a TGI (SF-539 CNS) greater than 100 µM and a TGI (SR leukemia) of 88.7 µM. The TGI (TK-10 renal) was greater than 100 µM, the TGI (A498 renal) was greater than 100 µM and the TGI (SW-620 colon) was greater than 100 µM. The TGI (BT-549 breast) was 82.9 µM.

`O=C(O)C1CSC2(CCCN(Cc3ccccc3)C2)N1` (stereo not drawn) gave a TGI (MDA-N) greater than 100 µM, a TGI (M14 melanoma) greater than 100 µM and a TGI (PC-3 prostate) greater than 100 µM. For the same compound, the TGI (HT29 colon) was greater than 100 µM, the TGI (SF-539 CNS) was greater than 100 µM and the TGI (SR leukemia) was 34.4 µM. For the same compound, the TGI (TK-10 renal) was greater than 100 µM, the TGI (A498 renal) was greater than 100 µM and the TGI (SW-620 colon) was greater than 100 µM. It also gave a TGI (BT-549 breast) greater than 100 µM.

Work on `O=C1c2cc3ncsc3cc2C(=O)c2c(O)ccc(O)c21` yielded a TGI (MDA-N) greater than 100 µM, a TGI (M14 melanoma) greater than 100 µM and a TGI (PC-3 prostate) greater than 100 µM. The TGI (HT29 colon) was greater than 100 µM, the TGI (SF-539 CNS) was greater than 100 µM and the TGI (SR leukemia) was greater than 100 µM. The TGI (TK-10 renal) was greater than 100 µM, the TGI (A498 renal) was greater than 100 µM and the TGI (SW-620 colon) was greater than 100 µM. It also gave a TGI (BT-549 breast) greater than 100 µM.

`O=C(CN1CCN(c2ccccn2)CC1)N1CCCn2c1nc1ccccc1c2=O` showed a TGI (MDA-N) greater than 100 µM, a TGI (M14 melanoma) greater than 100 µM and a TGI (PC-3 prostate) greater than 100 µM. For the same compound, the TGI (HT29 colon) was greater than 100 µM, the TGI (SF-539 CNS) was greater than 100 µM and the TGI (SR leukemia) was greater than 100 µM. For the same compound, the TGI (TK-10 renal) was greater than 100 µM, the TGI (A498 renal) was greater than 100 µM and the TGI (SW-620 colon) was greater than 100 µM. It also gave a TGI (BT-549 breast) greater than 100 µM.

`CSc1nc(-c2ccccc2)nc(=[N+]2CCOCC2)s1` was tested, and the TGI (KM20L2 colon) was greater than 100 µM, the TGI (SNB-78 CNS) was greater than 100 µM and the TGI (M14 melanoma) was greater than 100 µM. For the same compound, the TGI (DMS 273 small cell lung) was greater than 100 µM, the TGI (HT29 colon) was greater than 100 µM and the TGI (SF-539 CNS) was greater than 100 µM. The TGI (SR leukemia) was 67.5 µM, the TGI (TK-10 renal) was greater than 100 µM and the TGI (HOP-18 NSCLC) was greater than 100 µM. It also gave a TGI (A498 renal) greater than 100 µM and a TGI (SW-620 colon) greater than 100 µM.

Work on `Cc1cc(OCC(O)CO)ccc1Cl` (stereo not drawn) yielded a TGI (KM20L2 colon) greater than 100 µM, a TGI (M14 melanoma) greater than 100 µM and a TGI (DMS 273 small cell lung) greater than 100 µM. For the same compound, the TGI (HT29 colon) was greater than 100 µM, the TGI (SF-539 CNS) was greater than 100 µM and the TGI (DMS 114 small cell lung) was greater than 100 µM. For the same compound, the TGI (SR leukemia) was greater than 100 µM, the TGI (TK-10 renal) was greater than 100 µM and the TGI (HOP-18 NSCLC) was greater than 100 µM. The TGI (A498 renal) was greater than 100 µM and the TGI (SW-620 colon) was greater than 100 µM.
